Tests used:
[1] = Whole blood clearance of radioactivity in male mongrel dog, gamma spectrometer (FIG. 3); assay type: in vivo
Experimental: The procedures for injecting and taking and analyzing blood samples from the female beagle were repeated with a male mongrel dog weighing 14.1 kilograms, and the results are presented in FIG. 3. In this case, a sample of 0.1 to 1.0 milliliter of a solution of the chelate of technetium-99 m and N-(3-cyano-3,3-diphenylpropyl)-iminodiacacetic acid prepared as in Examples 1 and 2 and having a radioactivity of 3.08 mCi and containing 0.5 to 5 milligrams of the chelate was administered. In this case, the radioactivity of one milliliter samples of whole blood was measured.
(§1) The gamma spectrometer employed was a Model 1185 Gamma Scintillation Spectrometer (Searle Analytic Inc., Des Plaines, Ill.). One milliliter samples of plasma or whole blood were analyzed for technetium-99 m, and samples were counted for 1 minute. FIGS. 2 and 3 show the radioactivity present in the plasma or whole blood, respectively, versus the time in hours after administration of the chelate to the animals. As determined by the computer, curves A and B were the best fitting curves passing through the plots of experimentally measured radioactivities. […] This illustrates that, after being distributed throughout the body the chelate of this invention is cleared relatively quickly from the […].

[2] = Organ radioactivity and imaging in test animals (all species) after i.v. chelate; assay type: in vivo, rabbit, dog, monkey
Experimental: (§2) A volume of a solution of the chelate of technetium-99 m and N-(3-cyano-3,3-diphenylpropyl)-iminodiacetic acid prepared as in Examples 1 and 2 in the range of 0.1 to 1.0 milliliter and having a radioactivity of 1.2 millicuries and containing 0.5 to 5 milligrams of the chelate was administered intravenously to an anesthetized New Zealand rabbit weighing about 3 kilograms using a 1 milliliter tuberculin syringe connected to a #23 gauge indwelling cannula inserted into a marginal ear vein. The rabbit was positioned in a full ventral position for four hours during which time the disposition of the radioactivity in the rabbit in this position was monitored using a computer-augmented Anger camera.
(§3) This procedure used with the rabbit was repeated with additional anesthetized animals; a female beagle dog weighing 9.25 kilograms, and a female rhesus monkey weighing 7.9 kilograms. Again 0.1 to 1.0 milliliter of the solution containing 0.5 to 5 milligrams of the same chelate and prepared as in Examples 1 and 2 was administered in each case. One difference was that unlike the case of the rabbit, the chelate solution was injected intravenously in the saphenous vein of the dog or monkey. In separate tests with the female beagle, (1) a solution having 1.13 mCi of the chelate and (2) a solution having a 3.10 mCi of the chelate were administered, and the disposition of radioactivity in the dog was monitored for one hour and 3 hours, respectively. In addition, FIG. 1 represents results of the test involving administration of 3.10 mCi of radioactive chelate to the female beagle dog.
(§4) In the test using the female rhesus monkey, 0.1 to 1.0 milliliter of a solution of the chelate of technetium-99 m and N-(3-cyano-3,3-diphenylpropyl)-iminodiacetic acid prepared as in Examples 1 and 2 and having a radioactivity of 1.23 mCi and containing 0.5 to 5 milligrams of the same chelate was administered and the disposition of the radioactive material in the monkey was monitored for one hour.
(§5) At various times after administration of a solution of a chelate of this invention which are indicated in Tables 1-4, scintiscan photographs and video tape recordings were taken of the rabbit, female beagle and monkey using the Anger camera. This instrument was a Pho-Gamma LFOV Scintillation Camera System, Model 6413, fitted with a Model 3137 Vari-Back Camera, a Model 3122 Data-Store/Playback System and a Model 27851 Analog-Digital/Digital-Analog Converter (all Searle Radiographics, Inc.). This entire system was interfaced with a Xerox 530 computer (Xerox Corp., Minneapolis, Minn.) which was programmed to record net counts per unit of time and percents of total counts in individual organs and to plot organ radioactivity versus time and to separate the radioactivity of the gallbladder from the radioactivity of the liver. The camera was operated with a 140 keV high resolution Type II converging collimator using a 20 percent technetium-99 m window. Generally 400,000 counts were accumulated on each scintiscan using both video tape and self-developing film, with the animal in the full ventral position. The photographs represented a visualization of the anatomic relationships in the hepatobiliary system.

[3] = Disposition of radioactivity in rabbit after i.v. chelate, Anger camera scintigraphy (Table 1); assay type: in vivo, New Zealand rabbit; design: key to Relative Distribution of Chelate: Vascular / Relative Distribution of Chelate: Liver / Relative Distribution of Chelate: Gallbladder / Relative Distribution of Chelate: Intestine: -: no statistically significant measured radioactivity; ±: relative amounts of measured radioactivity; +: relative amounts of measured radioactivity; ++: relative amounts of measured radioactivity; +++: the maximum measured radioactivity
Experimental: as §2, §5
(§6) The video tape was processed by computer for quantification of the distribution of the technetium-99 m chelate radioactivity in the organs of the animals. Tables 1-4 contain semi-quantitative representations of the distribution of radioactivity in the organs of the test animals calculated from the scintiscans. In Tables 1-4, (-), (±), (+), (++) and (+++) indicate relative amounts of measured radioactivity ranging from (-) for no statistically significant measured radioactivity to (+++) for the maximum measured radioactivity.

[4] = Plasma clearance of radioactivity in female beagle, gamma spectrometer (FIG. 2); assay type: in vivo, female beagle dog
Experimental: In addition, periodically during the time of monitoring the distribution of radioactivity in the female beagle, blood samples were removed from the jugular vein of the animal and collected in vacuum tubes containing the disodium salt of ethylendiaminetetraacetic acid and the radioactivity of one milliliter samples of plasma was measured in a gamma spectrometer.
as §1

[5] = Urinary excretion of radioactivity in male mongrel dog; assay type: in vivo; settings: through 2 hours after administration
[6] = Disposition of radioactivity in female rhesus monkey after i.v. chelate, Anger camera scintigraphy (Table 4); assay type: in vivo; design: key to Relative Distribution of Chelate: Vascular / Relative Distribution of Chelate: Liver / Relative Distribution of Chelate: Gallbladder / Relative Distribution of Chelate: Intestine: -: no statistically significant measured radioactivity; ±: relative amounts of measured radioactivity; +: relative amounts of measured radioactivity; ++: relative amounts of measured radioactivity; +++: the maximum measured radioactivity
Experimental: as §3, §4, §5, §6

[7] = Disposition of radioactivity in female beagle dog after i.v. chelate, Anger camera scintigraphy (Tables 2 and 3, FIG. 1); assay type: in vivo; design: key to Relative Distribution of Chelate: Vascular / Relative Distribution of Chelate: Liver / Relative Distribution of Chelate: Gallbladder: -: no statistically significant measured radioactivity; ±: relative amounts of measured radioactivity; +: relative amounts of measured radioactivity; ++: relative amounts of measured radioactivity; +++: the maximum measured radioactivity; settings: for Relative Distribution of Chelate: Gallbladder / Relative Distribution of Chelate: Liver / Relative Distribution of Chelate: Vascular: i.v.
Experimental: as §3, §5, §6
The disappearance of the radioactive chelate from the liver and its appearance in the gallbladder of the female beagle as well as the presence of the radioactive chelate in the total hepatobiliary system of the female beagle was calculated from video tape measurements by the computer and are plotted as percentages of total radioactivity administered in the form of the radioactive chelate versus time after administration in FIG. 1. At about 120 minutes after administration, about 75 percent of the total radioactivity administered was concentrated in the gallbladder, and in excess of 90 percent of the total dose of the radioactive chelate was in the hepatobiliary system. Approximately 50 percent of the radioactive chelate in the total hepatobiliary system had passed from the liver into the gallbladder within about 45 minutes after administration.

[8] = test animals, first 3 hours after administration
[9] = i.v., 1.2 mCi, minutes after administration: 0.5, 3, 10, 20, 30, 60, 120, 180, 240
[10] = within 120 minutes after administration
[11] = i.v., 1.23 mCi, minutes after administration: 1, 10, 20, 30, 40, 50, 60
[12] = female beagle, about 120 minutes after administration
[13] = female beagle, 1.13 mCi (Table 2), minutes after administration: 1, 10, 20, 30, 40, 50, 60
[14] = female beagle, 3.10 mCi (Table 3), minutes after administration: b87 10, b88 25, b89 35, b90 65, b91 102, b92 160

With “chelate of technetium-99 m and N-(3-cyano-3,3-diphenylpropyl)-iminodiacetic acid” the clearance kinetics [1] was “bi-exponential decay”, the “half time of distributive phase of clearance” value ([1]; 3.08 mCi) was 0.13 h and the “half time of elimination phase of clearance” value ([1]; 3.08 mCi) was 3.5 h. For the same substance, the “distribution throughout the cardiovascular system” value ([2]; after intravenous administration) was “rapidly distributed throughout the cardiovascular system”, the “imaging of liver and gallbladder” value ([2]; all species, first 3 hours after administration) was “in all species the conformation of these organs was easily seen and distinguished” and the urinary excretion ([2]; in vivo) was “virtually no urinary excretion”. For the same substance, the “ratio of measured radioactivity in the gallbladder to measured background radioactivity” value [2, 8] was 150-200 to 1, the “ratio of measured radioactivity of the liver to measured background radiation” value [2, 8] was 10-20 to 1 and the “route of clearance from the vascular system” value (“route of clearance” below) [3] was “solely by the liver and biliary excretion”. For the same substance, the “time to appearance of chelate in the gallbladder” value [3] was ≤ 3 min, the “Relative Distribution of Chelate: Gallbladder” value [3, 9] was “- and + and ++” and the “Relative Distribution of Chelate: Intestine” value [3, 9] was “- and + and ++ and +++”. For the same substance, the “Relative Distribution of Chelate: Liver” value [3, 9] was “+++ and ++ and + and ± and -”, the “Relative Distribution of Chelate: Vascular” value [3, 9] was “++ and -” and the “radioactivity of heart, aorta, kidneys and liver” value ([3]; within 0.5 minutes after administration) was “strongly radioactive”. The “amount in the gallbladder” value [3, 10] was “a relatively small amount”, the “amount of chelate in the intestine” value [3, 10] was “the bulk of the chelate” and the “radioactivity in the hepatic parenchyma” value [3, 10] was “no measurable radioactivity”. For the same substance, the clearance kinetics [4] was “bi-exponential decay”, the “half time of distributive phase of clearance” value [4] was 0.1 h and the “half time of elimination phase of clearance” value [4] was 1.5 h. The “total radioactivity administered found in the urine” value [5] was “less than 0.5%”, the “appearance of the chelate in the gallbladder compared with rabbit” value [6] was “slower than in the case of the rabbit” and the “route of clearance” value [6] was “exclusively by the liver and biliary excretion”. For the same substance, the “Relative Distribution of Chelate: Gallbladder” value [6, 11] was “- and +”, the “Relative Distribution of Chelate: Intestine” value [6, 11] was “- and + and ++ and +++” and the “Relative Distribution of Chelate: Liver” value [6, 11] was “+++ and ++ and +”. For the same substance, the “Relative Distribution of Chelate: Vascular” value [6, 11] was “+ and -”, the “administered chelate appeared in the liver” value ([7]; dog, within 15 minutes after administration) was “more than 70%” and the “appearance of the chelate in the gallbladder compared with rabbit” value ([7]; female beagle) was “slower than in the case of the rabbit”. The “excretion of the chelate from the gallbladder into the intestine compared with rabbit or monkey” value ([7]; female beagle) was “slower in the female beagle than either in the rabbit or monkey”, the “route of clearance” value ([7]; female beagle) was “exclusively by the liver and biliary excretion” and the “total dose of the radioactive chelate in the hepatobiliary system” value [7, 12] was > 90%. For the same substance, the “total radioactivity administered concentrated in the gallbladder” value [7, 12] was “about 75%”, the “Relative Distribution of Chelate: Gallbladder” value [7, 13] was “- and + and ++ and +++” and the “Relative Distribution of Chelate: Liver” value [7, 13] was “++ and +++ and +”. The “Relative Distribution of Chelate: Vascular” value [7, 13] was “++ and -”, the “Relative Distribution of Chelate: Gallbladder” value [7, 14] was “- and + and ++ and +++” and the “Relative Distribution of Chelate: Liver” value [7, 14] was “+++ and ++ and + and ± and -”. The “Relative Distribution of Chelate: Vascular” value [7, 14] was “+ and -”, the “radioactive chelate in the total hepatobiliary system passed from the liver into the gallbladder” value ([7]; female beagle, within about 45 minutes after administration) was “Approximately 50%” and the “administered radioactivity accumulated in the hepatobiliary system” value ([7]; female dog, during the first 30 minutes) was “more than 85%”.
